# According to patent US20210322369A1, “COMPOSITION FOR IMPROVING INTESTINAL ENVIRONMENT AND METHOD FOR IMPROVING INTESTINAL FLORA” (SUNTORY HOLDINGS LIMITED, priority 2018, published 2021):
# Experiments:
# [1] = test system: gut flora (Akkermansia bacteria, Firmicutes bacteria, Bacteroidetes bacteria); experiment: Gut flora improving action in high fat diet mouse model, 16S rRNA gene analysis of feces after eight weeks of intake; assay type: in vivo, Mice (C57BL/6J); conditions: high fat diet mice; for abundance ratio of Firmicutes bacteria to Bacteroidetes bacteria: eight weeks, High fat diet group 7.4, Regular diet group 4.2; for abundance ratio of Firmicutes bacteria to Bacteroidetes bacteria / abundance proportion of Akkermansia bacteria in the gut flora: feces; for change in the abundance ratio of Firmicutes bacteria to Bacteroidetes bacteria, in words: oral intake for eight weeks; for change in the abundance ratio of Firmicutes bacteria to Bacteroidetes bacteria, in words / abundance proportion of Akkermansia bacteria in the gut flora: compared to High fat diet group; for abundance proportion of Akkermansia bacteria in the gut flora: oral intake once a day for eight weeks
# Source text: The influence of xanthohumol and isoxanthohumol on the gut flora was examined by the following procedure using a high fat diet mouse model. […] The dosage is an intake (mg) of the test substance per kg body weight per day. In the table, “Regular diet” is control diet “[…]” (Research Diets), and “60 kcal % High-fat diet” is very high-fat diet “D12492” (Research Diets); “Catechins” is a preparation “Polyphenon […]” (product name, Mitsui Morin Co., Ltd.). Catechins were used as a positive control. Xanthohumol and isoxanthohumol were the standard samples (purity of 95% or higher) obtained in Preparation Example 1. [table] Mice (C57BL/6J, male, 7 weeks of age, CLEA Japan, Inc.) were purchased, and they were quarantined and acclimatized for one week. […] The selected animals were divided into groups (n=8 in each group) in the group structure shown in Table 1 by the stratified continuous randomization method based on body weight at the end of the acclimatization period. They were fed with free access to specific basic feed and water. The test substance was orally fed once a day for eight weeks. A dosing solution containing a mixture of the test substance and a solvent was used to administer the test substance. The solvent was a 0.5 wt % sodium carboxymethylcellulose (CMC) aqueous solution. The volume of the dosing solution to be administered to each mouse was 10 mL/kg. The amount of the test substance and the volume of the solution were calculated based on the latest body weight. 16S rRNA gene analysis was performed on feces (fresh feces) collected eight weeks after the start of intake of the test substance. 16S rRNA gene analysis was performed by the method described in Examples of JP 2018-8911 A. The abundance proportions (abundance ratio) of intestinal bacteria found in the feces were determined by the gene analysis as the abundance ratio of bacteria in the gut flora. FIG. 1 is a graph showing the abundance proportion (group average) of bacteria in the gut flora of each group. The abundance proportion shown in FIG. 1 is the ratio (occupancy) of each species of bacteria to the total bacterial count in the feces. Verrucomicrobia in FIG. 1 is a higher rank to which Akkermansia bacteria belong. All the Verrucomicrobia bacteria in this analysis were Akkermansia bacteria. The dosage (mg/kg) of isoxanthohumol (IXN) and xanthohumol (XN) in FIG. 1 is the intake (mg) of the test substance per kg body weight per day. […] The abundance ratio of Firmicutes bacteria to Bacteroidetes bacteria was as follows: 4.2 in Regular diet group; 7.4 in High fat diet group; 1.7 in Catechins group; 3.2 in Xanthohumol (60 mg/kg) group; 6.0 in Isoxanthohumol (60 mg/kg) group (Group No. 5); and 2.4 in Isoxanthohumol (180 mg/kg) group (Group No. 6).
# [2] = 100° C.; cited from earlier work
# [3] = test system: gut flora (Akkermansia bacteria); experiment: Example 2: 16S rRNA gene analysis of cecal contents two weeks after the start of intake; assay type: in vivo; conditions: 60 mg/kg body weight per day, compared to High fat diet group
# Protocol: 16S rRNA gene analysis was performed on feces (fresh feces) collected eight weeks after the start of intake of the test substance. 16S rRNA gene analysis was performed by the method described in Examples of JP 2018-8911 A. The abundance proportions (abundance ratio) of intestinal bacteria found in the feces were determined by the gene analysis as the abundance ratio of bacteria in the gut flora.
# Another test was performed using isoxanthohumol as the test substance, with partial modification in the group structure and dosage design. In this test, the cecal contents were collected two weeks after the start of intake of the test substance, and 16S rRNA gene analysis was performed in the same manner as described above.
SMILES,abundance ratio of Firmicutes bacteria to Bacteroidetes bacteria ([1]; 60 mg/kg/day oral),abundance ratio of Firmicutes bacteria to Bacteroidetes bacteria ([1]; 180 mg/kg/day oral),"change in the abundance ratio of Firmicutes bacteria to Bacteroidetes bacteria, in words [1]",abundance proportion of Akkermansia bacteria in the gut flora [1],stability at high temperature [2],abundance ratio of Akkermansia bacteria in the gut flora [3]
COc1cc(O)c(CC=C(C)C)c2c1C(=O)CC(c1ccc(O)cc1)O2 (stereo not drawn) [Isoxanthohumol],6.0,2.4,decrease,increase,stable,increase
COc1cc(O)c(CC=C(C)C)c(O)c1C(=O)/C=C/c1ccc(O)cc1 [Xanthohumol],3.2,,decrease,increase,,
